# Test results: patent US9555024B2, “Substituted (E)-N′-(1-phenylethylidene)benzohydrazide analogs as histone demethylase inhibitors” (University of Utah Research Foundation, priority 2011, dated 2017)
# Tests used:
# [1] = system: heme oxygenase (HMOX); experiment: Real-Time PCR of heme oxygenase (HMOX) expression in T-47D cells; assay type: cell-based, human; details: normalized to HPRT and β-actin
# Experimental: Briefly, T-47D cells were seeded in 96-well plates and treated with concentrations of inhibitors as indicated. Cell lysates, Reverse transcription, and single color syber green realtime PCR was performed using the Cells-to-Ct kit (Life Technologies). Transcript levels of heme oxygenase (HMOX) were normalized to hypoxanthine phosphoribosyltransferase (HPRT) and β-actin.
# [2] = system: T-47D cells; experiment: Cell Viability Assay (ATPlite); assay type: cell-based; details: Homo sapiens, T47D, 96-hours of incubation, read-out: Cell Growth, IC50
# Experimental: Cells were cultured according to the procedures provided. […] Cells were cultured at 37° C. and 5% CO2.
# Cell viability was determined using ATPlite™ Luminescence Assay System (PerkinElmer Inc., Waltham, Mass.) using the various cell-lines described above and in Table 4. Briefly, cells were seeded in 96-well plates and then treated with different concentrations of inhibitor (0.1% final DMSO concentration). After 96-hours of incubation, ATPlite detection reagent was added directly to the culture well. Luminescence was read 5 minutes later on an Envision microplate reader.
# (§1) IC50 values are determined using GraphPad Prism 5 software. The data were entered as an X-Y plot into the software as percent inhibition for each concentration of the drug. The concentration values of the drug were log transformed and the nonlinear regression was carried out using the “sigmoidal dose-response (variable slope)” option within the GraphPad software to model the data and calculate IC50 values.
# [3] = biological target: MAO A (Homo sapiens (Human), UniProt P21397); experiment: Monoamine Oxidase assay (MAO-Glo Assay Kit); details: result in words
# Sequence of MAO A (P21397 whole entry): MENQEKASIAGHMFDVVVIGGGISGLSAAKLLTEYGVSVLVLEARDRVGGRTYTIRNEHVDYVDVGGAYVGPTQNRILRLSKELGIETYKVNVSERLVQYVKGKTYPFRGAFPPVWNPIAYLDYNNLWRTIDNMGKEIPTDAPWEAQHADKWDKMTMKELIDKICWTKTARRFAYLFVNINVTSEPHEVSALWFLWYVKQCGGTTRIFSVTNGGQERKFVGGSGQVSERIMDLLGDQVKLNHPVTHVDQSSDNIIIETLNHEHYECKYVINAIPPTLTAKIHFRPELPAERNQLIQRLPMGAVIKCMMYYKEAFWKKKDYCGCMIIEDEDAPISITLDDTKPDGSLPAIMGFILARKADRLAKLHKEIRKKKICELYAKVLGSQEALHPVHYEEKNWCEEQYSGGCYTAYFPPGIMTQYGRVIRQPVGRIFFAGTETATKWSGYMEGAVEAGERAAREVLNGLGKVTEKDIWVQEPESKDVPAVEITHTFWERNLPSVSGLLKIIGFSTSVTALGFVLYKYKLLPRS
# Experimental: Recombinant (expressed in baculovirus infected BTI insect cells) monoamine oxidase A and monoamine oxidase B (Catalog No. M7316 and M7441, respectively) were purchased from Sigma-Aldrich Co. LLC. […] MAO-Glo™ Assay Kit was purchased from Promega Corporation (Madison, Wis.).
# Briefly, 6.25 μL of test compound was added to each well of a 384-well plate. Enzyme (either MAO A or B) was added (12.5 μL in 2× buffer containing 1 μg protein) and allowed to incubate for 5 minutes. Finally, 6.25 μL of 4×MAO substrate was added to each well. Following a one hour incubation, 25 μL of Luciferin detection reagent was added to each well, and incubated for 20 minutes. Luminescence was then measured on an Envision microplate reader.
# as §1
# [4] = biological target: MAO B (Homo sapiens (Human), UniProt P27338); experiment: Monoamine Oxidase assay (MAO-Glo Assay Kit); details: result in words
# Sequence of MAO B (P27338 whole entry): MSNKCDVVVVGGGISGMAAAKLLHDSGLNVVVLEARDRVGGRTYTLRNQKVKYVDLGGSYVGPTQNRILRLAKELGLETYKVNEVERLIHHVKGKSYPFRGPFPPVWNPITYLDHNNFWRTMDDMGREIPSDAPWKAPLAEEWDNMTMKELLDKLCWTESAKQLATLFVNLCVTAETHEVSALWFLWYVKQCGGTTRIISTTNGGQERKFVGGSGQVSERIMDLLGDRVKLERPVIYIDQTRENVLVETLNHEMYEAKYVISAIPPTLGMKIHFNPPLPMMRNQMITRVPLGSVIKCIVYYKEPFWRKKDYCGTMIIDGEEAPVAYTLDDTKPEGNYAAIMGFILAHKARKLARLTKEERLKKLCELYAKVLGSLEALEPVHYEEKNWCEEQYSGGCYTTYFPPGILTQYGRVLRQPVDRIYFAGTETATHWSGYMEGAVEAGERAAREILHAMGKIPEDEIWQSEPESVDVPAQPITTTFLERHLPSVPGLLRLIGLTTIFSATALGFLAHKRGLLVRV
SMILES,HMOX expression (fold-induction) [1],IC50 [2],activity against MAO A [3],activity against MAO B [4]
C/C(=N\NC(=O)c1ccccc1)c1c(O)cccc1O [Compound 14],1.1 fold-induction,> 10 µM,–,–
"N[C@@H]1CC1c1ccccc1 (some centres unmarked) [tranylcypromine, reference compound]",–,–,exhibited activity,exhibited activity
O=C(N/N=C/c1ccccc1O)c1ccc(O)cc1 [Compound 1],–,–,–,comparable activity to tranylcypromine
